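Five concentrations, 48 hours, 96-well plates. Here, GI50 denotes the concentration required for 50% inhibition of growth. TGI: total growth inhibition.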
Columns and labels:
Test in all cases: NCI tumour cell line growth inhibition, 48 h
[1] = test system: SF-295 CNS
[2] = test system: A549 NSCLC
[3] = test system: MALME-3M melanoma
[4] = test system: NCI-H522 lung
[5] = test system: HOP-92 NSCLC
[6] = test system: HT29 colon
[7] = test system: DU-145 prostate
[8] = test system: NCI-H226 lung
[9] = test system: PC-3 prostate
[10] = test system: NCI-H23 lung
[11] = test system: LOX IMVI melanoma
[12] = test system: HOP-62 NSCLC
[13] = test system: SK-MEL-28 melanoma
[14] = test system: SK-MEL-2 melanoma
[15] = test system: MOLT-4 leukemia
[16] = test system: ACHN renal
[17] = test system: CAKI-1 renal
[18] = test system: HCT-15 colon
[19] = test system: IGROV1 ovarian
[20] = test system: T-47D breast
[21] = test system: SN12C renal
[22] = test system: COLO 205 colon
[23] = test system: A498 renal
[24] = test system: TK-10 renal
[25] = test system: OVCAR-3 ovarian
[26] = test system: MDA-MB-435
[27] = test system: SF-539 CNS
[28] = test system: NCI/ADR-RES ovarian
[29] = test system: SK-MEL-5 melanoma
[30] = test system: SNB-19 CNS
[31] = test system: SK-OV-3 ovarian
[32] = test system: 786-0 renal
[33] = test system: SNB-75 CNS
[34] = test system: K-562 leukemia
[35] = test system: M14 melanoma
[36] = test system: CCRF-CEM leukemia
[37] = test system: OVCAR-8 ovarian
[38] = test system: U251 CNS
[39] = test system: MDA-MB-231 breast
[40] = test system: RPMI-8226 leukemia
[41] = test system: HL-60(TB) leukemia
[42] = test system: RXF 393 renal
[43] = test system: SW-620 colon
[44] = test system: UACC-62 melanoma
[45] = test system: HS 578T breast
[46] = test system: BT-549 breast
[47] = test system: UACC-257 melanoma
[48] = test system: OVCAR-4 ovarian
[49] = test system: OVCAR-5 ovarian
[50] = test system: MCF7 breast
[51] = test system: KM12 colon
[52] = test system: SF-268 CNS
[53] = test system: HCT-116 colon
[54] = test system: HCC-2998 colon
[55] = test system: UO-31 renal
[56] = test system: SR leukemia
[57] = test system: EKVX NSCLC
[58] = test system: NCI-H460 lung

O=C1[C@H](Cc2ccc(O)cc2)N2C(=O)CCN(C(=O)NCc3ccccc3)[C@H]2CN1Cc1cccc2ccccc12
GI50 [1]: 3.22 µM
TGI [1]: 17.6 µM
GI50 [2]: 2660 nM
TGI [2]: > 50.6 µM
GI50 [3]: 1900 nM
TGI [3]: 9.46 µM
GI50 [4]: 901 nM
TGI [4]: 12 µM
GI50 [5]: 418 nM
TGI [5]: 2400 nM
GI50 [6]: 2850 nM
TGI [6]: 19.3 µM
GI50 [7]: 4.55 µM
TGI [7]: 46.5 µM
GI50 [8]: 1990 nM
TGI [8]: 21.4 µM
GI50 [9]: 2540 nM
TGI [9]: 18.8 µM
GI50 [10]: 4.05 µM
TGI [10]: 34.5 µM
GI50 [11]: 1430 nM
TGI [11]: 14.4 µM
GI50 [12]: 3.22 µM
TGI [12]: 19.1 µM
GI50 [13]: 790 nM
TGI [13]: 9.63 µM
GI50 [14]: 2640 nM
TGI [14]: 9.18 µM
GI50 [15]: 1670 nM
TGI [15]: 54.1 µM
GI50 [16]: 4.73 µM
TGI [16]: 57.7 µM
GI50 [17]: 14.2 µM
TGI [17]: > 80.1 µM
GI50 [18]: 15.5 µM
TGI [18]: > 89.8 µM
GI50 [19]: 1420 nM
TGI [19]: 10.5 µM
GI50 [20]: 2340 nM
TGI [20]: 15.4 µM
GI50 [21]: 4.18 µM
TGI [21]: > 100 µM
GI50 [22]: 748 nM
TGI [22]: 2760 nM
GI50 [23]: 1380 nM
TGI [23]: 6.75 µM
GI50 [24]: 3.88 µM
TGI [24]: 30.7 µM
GI50 [25]: 1710 nM
TGI [25]: 8.91 µM
GI50 [26]: 3.96 µM
TGI [26]: 21.4 µM
GI50 [27]: 926 nM
TGI [27]: 7.4 µM
GI50 [28]: 43.5 µM
TGI [28]: > 100 µM
GI50 [29]: 2280 nM
TGI [29]: 11.4 µM
GI50 [30]: 868 nM
TGI [30]: > 100 µM
GI50 [31]: 2740 nM
TGI [31]: 8.14 µM
GI50 [32]: 3.15 µM
TGI [32]: > 46.8 µM
GI50 [33]: 399 nM
TGI [33]: 25.3 µM
GI50 [34]: 2060 nM
TGI [34]: > 100 µM
GI50 [35]: 3.61 µM
TGI [35]: 20.1 µM
GI50 [36]: 2190 nM
TGI [36]: > 53.1 µM
GI50 [37]: 959 nM
TGI [37]: 13.5 µM
GI50 [38]: 985 nM
TGI [38]: 18.6 µM
GI50 [39]: 605 nM
TGI [39]: 3.6 µM
GI50 [40]: 3.66 µM
TGI [40]: 23.1 µM
GI50 [41]: 4.84 µM
TGI [41]: 27.3 µM
GI50 [42]: 3.8 µM
TGI [42]: 14.5 µM
GI50 [43]: 4.49 µM
TGI [43]: > 55 µM
GI50 [44]: 4.45 µM
TGI [44]: 25 µM
GI50 [45]: 851 nM
TGI [45]: 7.24 µM
GI50 [46]: 3.01 µM
TGI [46]: 22.6 µM
GI50 [47]: 2720 nM
TGI [47]: 23.9 µM
GI50 [48]: 781 nM
TGI [48]: > 49.9 µM
GI50 [49]: 1720 nM
TGI [49]: 29.1 µM
GI50 [50]: 6.02 µM
TGI [50]: 39 µM
GI50 [51]: 3.1 µM
TGI [51]: 15.3 µM
GI50 [52]: 1810 nM
TGI [52]: 15.5 µM
GI50 [53]: 916 nM
TGI [53]: 12.7 µM
GI50 [54]: 3.51 µM
TGI [54]: 23.2 µM
GI50 [55]: 11.3 µM
TGI [55]: 77.9 µM
GI50 [56]: 3.19 µM
TGI [56]: > 54.1 µM
GI50 [57]: 3.81 µM
TGI [57]: > 100 µM
GI50 [58]: 1730 nM
TGI [58]: 7.23 µM

— PubChem BioAssay (NCI)
